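All cell lines were grown in 96-well plates and treated with compound for 48 hours. GI50 = concentration required for 50% inhibition of growth.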 Calls of active or inactive are those of the source. No stated cut-off is given here; in the data, active = GI50 up to about 1.1 µM and inactive = higher.
Legend:
Test in all cases: DTP human tumour cell line panel, 48 h
SNB-19 = system: SNB-19
SK-MEL-2 = system: SK-MEL-2
UACC-62 = system: UACC-62
T47D = system: T47D
MDA-MB-435 = system: MDA-MB-435
RPMI-8226 = system: RPMI-8226
OVCAR-3 = system: OVCAR-3
UO-31 = system: UO-31
NCI-H226 = system: NCI-H226
K562 = system: K562
A549 = system: A549
CAKI-1 = system: CAKI-1
A498 = system: A498
786-0 = system: 786-0
DU-145 = system: DU-145
PC-3 = system: PC-3
SW-620 = system: SW-620
HOP-92 = system: HOP-92
SK-MEL-5 = system: SK-MEL-5
HCT-116 = system: HCT-116
U-251 = system: U-251
SF-295 = system: SF-295
MCF7 = system: MCF7
ACHN = system: ACHN
M14 = system: M14
Hs-578T = system: Hs-578T
EKVX = system: EKVX
HCT-15 = system: HCT-15
NCI-H522 = system: NCI-H522
SN12C = system: SN12C
NCI/ADR-RES = system: NCI/ADR-RES
TK-10 = system: TK-10
MDA-MB-231 = system: MDA-MB-231
MDA-N = system: MDA-N
NCI-H460 = system: NCI-H460
NCI-H23 = system: NCI-H23
MOLT-4 = system: MOLT-4
IGROV-1 = system: IGROV-1
HOP-62 = system: HOP-62
SK-MEL-28 = system: SK-MEL-28
BT-549 = system: BT-549
CCRF-CEM = system: CCRF-CEM
OVCAR-5 = system: OVCAR-5
OVCAR-8 = system: OVCAR-8
HL-60 = system: HL-60
SK-OV-3 = system: SK-OV-3
KM12 = system: KM12
SF-268 = system: SF-268
Malme-3M = system: Malme-3M
SNB-75 = system: SNB-75
LOX IMVI = system: LOX IMVI
SR = system: SR
COLO 205 = system: COLO 205
HCC 2998 = system: HCC 2998
SF-539 = system: SF-539
RXF 393 = system: RXF 393
OVCAR-4 = system: OVCAR-4
HT-29 = system: HT-29
UACC-257 = system: UACC-257
HOP-18 = system: HOP-18
DMS-114 = system: DMS-114
DLD-1 = system: DLD-1
M19-MEL = system: M19-MEL
LXFL 529 = system: LXFL 529
SNB-78 = system: SNB-78
KM-20L2 = system: KM-20L2

Structure (SMILES): c1cc(CSc2ncnc3[nH]cnc23)ccn1
- GI50 (SNB-19): > 100 µM (inactive)
- GI50 (SK-MEL-2): 80.5 µM (inactive)
- GI50 (UACC-62): 37.4 µM (inactive)
- GI50 (T47D): 76.6 µM (inactive)
- GI50 (MDA-MB-435): 53.2 µM (inactive)
- GI50 (RPMI-8226): 58.1 µM (inactive)
- GI50 (OVCAR-3): 63 µM (inactive)
- GI50 (UO-31): 57.8 µM (inactive)
- GI50 (NCI-H226): > 100 µM (inactive)
- GI50 (K562): 27.8 µM (inactive)
- GI50 (A549): > 100 µM (inactive)
- GI50 (CAKI-1): > 100 µM (inactive)
- GI50 (A498): > 100 µM (inactive)
- GI50 (786-0): 39 µM (inactive)
- GI50 (DU-145): 65.3 µM (inactive)
- GI50 (PC-3): > 100 µM (inactive)
- GI50 (SW-620): > 100 µM (inactive)
- GI50 (HOP-92): > 100 µM (inactive)
- GI50 (SK-MEL-5): > 100 µM (inactive)
- GI50 (HCT-116): 77.8 µM (inactive)
- GI50 (U-251): > 100 µM (inactive)
- GI50 (SF-295): > 100 µM (inactive)
- GI50 (MCF7): 83.4 µM (inactive)
- GI50 (ACHN): > 100 µM (inactive)
- GI50 (M14): 34.8 µM (inactive)
- GI50 (Hs-578T): > 100 µM (inactive)
- GI50 (EKVX): > 100 µM (inactive)
- GI50 (HCT-15): > 100 µM
- GI50 (NCI-H522): 42.2 µM (inactive)
- GI50 (SN12C): > 100 µM (inactive)
- GI50 (NCI/ADR-RES): > 100 µM (inactive)
- GI50 (TK-10): 59.8 µM (inactive)
- GI50 (MDA-MB-231): > 100 µM (inactive)
- GI50 (MDA-N): 42.9 µM (inactive)
- GI50 (NCI-H460): > 100 µM (inactive)
- GI50 (NCI-H23): > 100 µM (inactive)
- GI50 (MOLT-4): 34.7 µM (inactive)
- GI50 (IGROV-1): > 100 µM (inactive)
- GI50 (HOP-62): 91.8 µM (inactive)
- GI50 (SK-MEL-28): > 100 µM (inactive)
- GI50 (BT-549): 73.8 µM (inactive)
- GI50 (CCRF-CEM): 66.8 µM (inactive)
- GI50 (OVCAR-5): > 100 µM (inactive)
- GI50 (OVCAR-8): 94 µM (inactive)
- GI50 (HL-60): 67.9 µM (inactive)
- GI50 (SK-OV-3): 41.3 µM (inactive)
- GI50 (KM12): > 100 µM (inactive)
- GI50 (SF-268): 92.9 µM (inactive)
- GI50 (Malme-3M): > 100 µM (inactive)
- GI50 (SNB-75): > 100 µM (inactive)
- GI50 (LOX IMVI): 28.2 µM (inactive)
- GI50 (SR): 34.4 µM (inactive)
- GI50 (COLO 205): > 100 µM (inactive)
- GI50 (HCC 2998): 92.5 µM (inactive)
- GI50 (SF-539): 24.5 µM (inactive)
- GI50 (RXF 393): > 100 µM (inactive)
- GI50 (OVCAR-4): > 100 µM (inactive)
- GI50 (HT-29): 48.3 µM (inactive)
- GI50 (UACC-257): > 100 µM (inactive)

Structure (SMILES): O=[N+]([O-])c1ccc(/C=C/c2csnn2)cc1
- GI50 (SNB-19): > 100 µM (inactive)
- GI50 (HOP-18): > 100 µM (inactive)
- GI50 (SK-MEL-2): > 100 µM (inactive)
- GI50 (DMS-114): > 100 µM (inactive)
- GI50 (UACC-62): > 100 µM (inactive)
- GI50 (RPMI-8226): > 100 µM (inactive)
- GI50 (OVCAR-3): > 100 µM (inactive)
- GI50 (UO-31): > 100 µM (inactive)
- GI50 (NCI-H226): > 100 µM (inactive)
- GI50 (K562): > 100 µM (inactive)
- GI50 (A549): > 100 µM (inactive)
- GI50 (CAKI-1): > 100 µM (inactive)
- GI50 (786-0): > 100 µM (inactive)
- GI50 (DLD-1): > 100 µM (inactive)
- GI50 (SW-620): > 100 µM (inactive)
- GI50 (HOP-92): 70.5 µM (inactive)
- GI50 (SK-MEL-5): > 100 µM (inactive)
- GI50 (HCT-116): > 100 µM (inactive)
- GI50 (U-251): > 100 µM (inactive)
- GI50 (SF-295): > 100 µM (inactive)
- GI50 (ACHN): > 100 µM (inactive)
- GI50 (M14): > 100 µM (inactive)
- GI50 (EKVX): > 100 µM (inactive)
- GI50 (HCT-15): > 100 µM
- GI50 (NCI-H522): > 100 µM (inactive)
- GI50 (SN12C): > 100 µM (inactive)
- GI50 (TK-10): > 100 µM (inactive)
- GI50 (NCI-H460): > 100 µM (inactive)
- GI50 (NCI-H23): > 100 µM (inactive)
- GI50 (MOLT-4): > 100 µM (inactive)
- GI50 (IGROV-1): > 100 µM (inactive)
- GI50 (HOP-62): > 100 µM (inactive)
- GI50 (SK-MEL-28): > 100 µM (inactive)
- GI50 (M19-MEL): > 100 µM (inactive)
- GI50 (CCRF-CEM): > 100 µM (inactive)
- GI50 (OVCAR-5): > 100 µM (inactive)
- GI50 (LXFL 529): > 100 µM (inactive)
- GI50 (OVCAR-8): > 100 µM (inactive)
- GI50 (HL-60): > 100 µM (inactive)
- GI50 (SK-OV-3): > 100 µM (inactive)
- GI50 (KM12): > 100 µM (inactive)
- GI50 (SF-268): > 100 µM (inactive)
- GI50 (Malme-3M): > 100 µM (inactive)
- GI50 (LOX IMVI): > 100 µM (inactive)
- GI50 (HCC 2998): > 100 µM (inactive)
- GI50 (SNB-78): > 100 µM (inactive)
- GI50 (SF-539): > 100 µM (inactive)
- GI50 (RXF 393): > 100 µM (inactive)
- GI50 (OVCAR-4): > 100 µM (inactive)
- GI50 (HT-29): > 100 µM (inactive)
- GI50 (UACC-257): > 100 µM (inactive)

Structure (SMILES): C#Cc1cccc(NC(=O)/C=C\C(=O)O)c1
- GI50 (SNB-19): > 100 µM (inactive)
- GI50 (SK-MEL-2): > 100 µM (inactive)
- GI50 (UACC-62): > 100 µM (inactive)
- GI50 (RPMI-8226): > 100 µM (inactive)
- GI50 (UO-31): > 100 µM (inactive)
- GI50 (NCI-H226): > 100 µM (inactive)
- GI50 (K562): > 100 µM (inactive)
- GI50 (A549): > 100 µM (inactive)
- GI50 (CAKI-1): > 100 µM (inactive)
- GI50 (A498): > 100 µM (inactive)
- GI50 (786-0): > 100 µM (inactive)
- GI50 (DLD-1): > 100 µM (inactive)
- GI50 (SW-620): > 100 µM (inactive)
- GI50 (HOP-92): > 100 µM (inactive)
- GI50 (SK-MEL-5): > 100 µM (inactive)
- GI50 (HCT-116): > 100 µM (inactive)
- GI50 (U-251): > 100 µM (inactive)
- GI50 (SF-295): > 100 µM (inactive)
- GI50 (ACHN): > 100 µM (inactive)
- GI50 (EKVX): > 100 µM (inactive)
- GI50 (NCI-H522): > 100 µM (inactive)
- GI50 (SN12C): > 100 µM (inactive)
- GI50 (TK-10): > 100 µM (inactive)
- GI50 (NCI-H460): > 100 µM (inactive)
- GI50 (NCI-H23): > 100 µM (inactive)
- GI50 (MOLT-4): > 100 µM (inactive)
- GI50 (SK-MEL-28): > 100 µM (inactive)
- GI50 (CCRF-CEM): > 100 µM (inactive)
- GI50 (OVCAR-5): > 100 µM (inactive)
- GI50 (LXFL 529): > 100 µM (inactive)
- GI50 (OVCAR-8): > 100 µM (inactive)
- GI50 (HL-60): > 100 µM (inactive)
- GI50 (SK-OV-3): > 100 µM (inactive)
- GI50 (KM12): > 100 µM (inactive)
- GI50 (SF-268): > 100 µM (inactive)
- GI50 (Malme-3M): > 100 µM (inactive)
- GI50 (KM-20L2): > 100 µM (inactive)
- GI50 (SNB-75): > 100 µM (inactive)
- GI50 (COLO 205): > 100 µM (inactive)
- GI50 (SNB-78): > 100 µM (inactive)
- GI50 (OVCAR-4): > 100 µM (inactive)
- GI50 (HT-29): > 100 µM (inactive)
- GI50 (UACC-257): > 100 µM (inactive)

Structure (SMILES): CC1=CC(=O)c2[nH]c3ccccc3c2C1=O [MURRAYAQUINONE A]
- GI50 (SNB-19): > 25 µM (inactive)
- GI50 (DMS-114): 4.26 µM (inactive)
- GI50 (RPMI-8226): 5.96 µM (inactive)
- GI50 (OVCAR-3): 4.53 µM (inactive)
- GI50 (A549): > 25 µM (inactive)
- GI50 (HOP-62): > 25 µM (inactive)
- GI50 (OVCAR-5): 5.4 µM (inactive)
- GI50 (OVCAR-8): 4.02 µM (inactive)
- GI50 (KM-20L2): > 25 µM (inactive)
- GI50 (OVCAR-4): 4.16 µM (inactive)
